Earlier results as cited in patent US20240180165A1, “ACTIVATION OF BIONEMATICIDE AND PLANT GROWTH PROMOTING FUNCTIONS IN A BIOTECHNOLOGICAL SOLUTION COMPRISING TWO OR MORE BACILLUS SPECIES AND ALLICIN; INDUSTRIAL PROCESS AND APPLICATION THEREOF” (TOTAL BIOTECNOLOGIA INDÚSTRIA E COMÉRICO S/A, priority 2021, published 2024).

System: Gram-negative and Gram-positive bacteria, including the Bacillus genus
Conditions: even at low concentrations (UM)

SMILES: C=CCS[S+]([O-])CC=C (stereo not shown) [allicin]
- antimicrobial activity: broad antimicrobial activity
